The values that follow come from the NIST ThermoML archive (doi:10.1021/je7000733).

Molecules are shown by their SMILES. Numbers after ± are expanded uncertainties.

A short description of data set [1]: refractive index (Na D-line) (dimensionless). The settings on record: 293.1 K; 101.33 kPa; Liquid; Standard Abbe refractometry.
For data set [2] the following is noted: Liquid; for mass density: 293.1 K, 101.33 kPa, Vibrating tube method; for Normal boiling temperature: Fisher boiling point apparatus.

With `CC(=O)O` [acetic acid], the refractive index in data set [1] amounted to 1.37201 ± 0.0007. Moreover, in data set [2], the mass density came to 1044.3 ± 0.27 kg/m3 and the Normal boiling temperature worked out at 118.00 ± 0.2 °C.
For `CCOC(=O)CCC(=O)OCC` [diethyl butanedioate], the refractive index in data set [1] is reported as 1.42014 ± 0.0007. For the same compound, in data set [2], the mass density was 1040.22 ± 0.27 kg/m3 and the Normal boiling temperature is 217.70 ± 0.2 °C.
On to `CCOC(=O)CCCC(=O)OCC` [diethyl glutarate], for which the refractive index in data set [1] amounted to 1.42414 ± 0.00078. Moreover, in data set [2], the mass density is 1022.04 ± 0.88 kg/m3 and the Normal boiling temperature stood at 236.50 ± 0.2 °C.
For `CCOC(=O)CCCCC(=O)OCC` [diethyl hexanedioate] the same measures were 1.42725 ± 0.0007, 1007.63 ± 0.24 kg/m3 and 245.20 ± 0.2 °C.

What is called refractive index is the speed of light in vacuum divided by its phase velocity in the sample. The mass density is the mass of a sample divided by its volume.
